Series [1] can be described thus: TEM of nano-aggregates after incubation with caspase-3. Type of series: physicochemical. Conditions: after caspase-3 incubation. As to the method: FIG. 7C is a digital TEM image of nano-aggregates after incubation C-SNAF (50 μM) with recombinant human caspase-3 (4.9×10^−3 U/mL) overnight at 37° C. in caspase-3 buffer; scale bar, 1 μm.
No nano-aggregation was found in either of the control probe solutions after incubation with caspase-3.

A short description of series [2]: Stability of PET tracers in mouse serum. Type of series: in vitro ADME. The settings on record: 1 h incubation, 37° C. The procedure: To the mouse serum (500 μL) 100 μL (approximately 100 μCi/3.7 MBq) of radioactive sample was added and the mixture was incubated at 37° C. At each time point, 100 μL of sample was taken and after mixing with 100 μL of acetonitrile was centrifuged at 9,400×g for 5 min. The resulting supernatants were collected, and an aliquot of each supernatant (100 μL) was diluted with 100 μL of water and analyzed via the same HPLC method used for quality control (fitted with a highly sensitive positron detector for radioactivity). The percent ratio of intact compound to the total radioactivity on the HPLC chromatogram was calculated as %=[(peak area for intact compound)/(total peak area)]×100.

Series [3] is described as follows: Ex vivo biodistribution of [18F]C-SNAT. Type of series: in vivo, mouse. The settings on record: for Ratio of % ID/g over muscle ± SEM: 2 h post injection. As to the method:
Mice were administered [^18F]C-SNAT (100-200 μCi/3.7-7.4 MBq in 100-200 μL of 0.9% saline solution) via tail vein injection and then euthanized by bilateral thoracotomy under anesthesia at 2 h after injection of tracer (n=3). All samples (tumor, heart, whole brain, gallbladder, kidney, liver, lung, muscle, bone, spleen, whole blood) were removed quickly following euthanasia and placed in pre-weighed test tubes. Standard solutions of the tracer were prepared by diluting approximately 100 μCi (3.7 MBq) tracer in 100 mL of water, of which 1 mL of aliquots were used for reference counting.
The test tubes containing tissue samples were weighed and the radioactivity was measured by an automated gamma counter (Cobra Model 5002, Packard, USA) along with the standard solutions.

The next series has as its target T1, caspase-3 (Homo sapiens, UniProt P42574).
T1 sequence (P42574 29-175 limits assumed): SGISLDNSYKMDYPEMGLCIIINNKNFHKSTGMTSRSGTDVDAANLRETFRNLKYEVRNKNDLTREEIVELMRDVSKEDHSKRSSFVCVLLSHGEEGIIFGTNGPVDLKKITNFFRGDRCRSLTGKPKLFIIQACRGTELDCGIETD
T1 sequence (P42574 176-277 limits assumed): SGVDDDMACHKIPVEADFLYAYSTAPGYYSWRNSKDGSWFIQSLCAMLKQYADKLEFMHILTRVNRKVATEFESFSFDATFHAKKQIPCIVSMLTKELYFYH
Briefly: Incubation of PET tracer with recombinant caspase-3, radio-HPLC. Conditions: within 1 h, in buffer. Type of series: biochemical. The procedure:
To evaluate the activatable PET tracer 1 for caspase-3 detection, it was first incubated with recombinant caspase-3 in buffer.

The next series deals with HeLa tumor xenograft. Briefly: PET imaging of HeLa tumor xenograft-bearing nude mice. Type of series: in vivo, mouse. Conditions: for uptake ratio between tumor and muscle (T/M): treated tumors. The procedure:
One group of animals was scanned at baseline (before treatment) and 4 days post treatment with 0.2 mg doxorubicin injected into the tumor. On the day of scanning, the animals were moved from their housing area to the PET scanner around 1 h prior to the experiment. They were constrained shortly in a tail veiner and injected intravenously, with 440±97 μCi (16±3 MBq) [^18F]C-SNAT formulation. They were anesthetized with 2% isoflurane shortly before placement in an R4 microPET scanner (Siemens Medical Solutions, USA). The anesthesia were continued with 2% isoflurane doing 5 min of acquisition. Scans using the control tracer 1-D (173±73 μCi/9±4 Mbq in 200 μL formulation) were carried out in a similar manner using two groups (one baseline and one treated) instead of the same animals at baseline and after treatment. The images were reconstructed using a standard 2D reconstruction without attenuation correction.
The reconstructed images were analyzed by making two volumes of interest (VOI), one on the tumor and one located on the left shoulder corresponding to muscle/bone mixture. The percent of injected dose per gram tissue (% ID/g) was calculated in each VOI and the ratio between tumor and muscle uptake was calculated based on this uptake (uptake in tumor/uptake in muscle region). The effect of treatment was calculated as the difference in uptake of [^18F]C-SNAT at baseline and after treatment.
Evaluation of activatable PET tracer 1 and control tracer 1-D for PET imaging of caspase-3 activity in vivo was performed in HeLa tumor xenograft-bearing nude mice. Tumors were implanted and grown for a minimum of 10 d before receiving intratumoral injection of 0.2 mg DOX (20 μL). 1 or 1-D (5-15 MBq/135-405 μCi) was injected through the tail vein for PET imaging 4 d post treatment. Static PET scans (5 min) were performed 65, 125 and 182 mins post tracer injection.

For a further series, the system named is apoptotic HeLa cells. The series can be described thus: Cell uptake of tracer 1 in HeLa cells. Type of series: cell-based, human. The procedure: HeLa cells (cultured in DMEM with 10% FBS and 1% ampicillin) were grown in a 6 well plate culture dish for 24 h. The wells were then divided into 3 groups. Group 1 wells were cultured normally for 24 h, then the medium was changed and the cells were cultured for another 24 h. Group 2 and 3 wells were cultured with 2 μM doxorubicin (DOX) for 24 h, then the medium was changed and the cells were cultured for another 24 h, group 2 in normal culture medium without doxorubicin and group 3 in normal culture medium without doxorubicin but together with 50 μM Z-VAD-FMK, a caspase-3 inhibitor.
After 48 h, 10 μCi (0.37 MBq) of 1 were added to all three groups and incubated for additional 4 h. Then the medium was removed, the cells washed 3 times with phosphate buffered saline, and 1 mL of Tryp-LETM Express was added and the cells were left for 1-2 min to allow to detach. The cell/Tryp-LE solution was counted in a gamma counter and the radioactivity was normalized to the protein concentration (determined by comparison with BSA standards in each vial.

A further series concerns Membrane Potential. The settings on record: cited from earlier work.

Each structure is given as a SMILES string. Marks after values point to notes of the source that are not given here.

As to `CC[N+]1=C(C=CC=CC=C2N(CCCCCC(=O)NCCCCC3NC(=O)C4CSC(=N4)c4ccc5cc(ccc5n4)OCCCNC(=O)C4CSC(=N4)c4nc5ccc(cc5s4)NC3=O)c3ccc4c(S(=O)(=O)O)cc(S(=O)(=O)O)cc4c3C2(C)C)C(C)(C)c2c1ccc1c(S(=O)(=O)[O-])cc(S(=O)(=O)O)cc21` (stereo not shown) [C-SNAF-cycl], in series [1], the “average diameter of nano-aggregates (TEM)” value worked out at 174±44 nm.

For the compound `CCSSCC(NC(=O)[C@H](CC(=O)O)NC(=O)[C@@H](NC(=O)[C@H](CCC(=O)O)NC(=O)[C@H](CC(=O)O)NC(C)=O)C(C)C)C(=O)NC(Cc1cn(CCOCC[18F])nn1)C(=O)Nc1ccc2nc(C3=N[C@@H](C(=O)NCCCOc4ccc5nc(C#N)ccc5c4)CS3)sc2c1` (stereo partly shown) [[^18F]C-SNAT], the “intact tracer in mouse serum” value in series [2] is recorded as 60%. The “Ratio of % ID/g over muscle ± SEM” value stood at 2.4 ± 1.5 in series [3] (Bone); 0.5 ± 0.2 in series [3] (Brain); 4.5 ± 2.4 in series [3] (Heart); 124.2 ± 46.6 in series [3] (Kidney); 22.9 ± 9.7 in series [3] (Liver); 4.1 ± 1.8 in series [3] (Lung). Besides, the “Ratio of % ID/g over muscle ± SEM” value was determined as 1.0 ± 0.5 in series [3] (Muscle); 4.0 ± 1.8 in series [3] (Plasma); 1.7 ± 0.7 in series [3] (Spleen); 5.6 ± 2.3 in series [3] (Tumor); 5.1 ± 2.4 in series [3] (Whole Blood). Also, the “crossing of the blood-brain barrier” value in series [3] (low uptake in brain tissue, 120 minutes post injection) was “could not cross the blood-brain barrier”. At caspase-3, the “tracer cyclized by recombinant caspase-3” value amounted to 90%. Further, the “uptake difference between baseline and treated” value in the series with HeLa tumor xenograft (65 min) turned out to be 0.36±0.15 % ID/g; with HeLa tumor xenograft (182 min), 0.63±0.11 % ID/g. In addition, the uptake in tumor with HeLa tumor xenograft (DOX treated, 65 min) was 1.17±0.17 % ID/g; with HeLa tumor xenograft (DOX treated, 182 min), 1.29±0.07 % ID/g; with HeLa tumor xenograft (baseline, 65 min) it was 0.81±0.28 % ID/g; in the series with HeLa tumor xenograft (baseline, 182 min), 0.67±0.24 % ID/g. For the same compound, the Target/Background with HeLa tumor xenograft (maximum value at the apoptotic tissue) turned out to be 7.0. The “time course of uptake in apoptotic tumors” value in the series on HeLa tumor xenograft (mouse, in vivo) was “trend of increasing uptake over times”. For the same compound, the “% ID/g at target site” value in the series on HeLa tumor xenograft (mouse, tumor treatment, PET imaging) is on record as 1.3 ± 0.1 % ID/g. Also, the Treated/Untreated in the series on HeLa tumor xenograft (target uptake ratio between pre and post treatment in same animal) was 1.9^b. For the same compound, the “uptake ratio between tumor and muscle (T/M)” value was found to be 3.30 fold in the series with HeLa tumor xenograft (65 min) and 7.00 fold in the series on HeLa tumor xenograft (182 min). In the series with apoptotic HeLa cells (Dox 2 μM plus Z-VAD-fmk), the “retained 18F activity in Dox-treated cells with caspase-3 inhibitor” value is 1.3 fold. In the series with apoptotic HeLa cells (Dox 2 μM, 4 h tracer incubation), the “retained 18F activity in Dox-treated versus non-treated cells” value worked out at 2.2 fold.

For `CC(CCCCC[18F])(C(=O)O)C(=O)O` [[^18F]ML-10], the “% ID/g at target site” value in the series on Membrane Potential (PET imaging, cerebral stroke) was 0.3 ± 0.1 % ID/g. The Treated/Untreated with Membrane Potential (stroke and non-stroke region in same animal) is recorded as 2.3^f.

The record behind these values is US9642922B2, “Caspase-triggered nano-aggregation probes and methods of use” (The Board of Trustees of the Leland Stanford Junior …, priority 2013, dated 2017).
